# “Also recorded” adds a separate entry of the source. Structures can show the parent of a compound that is named as a salt.
# Experiments:
# [1] = Stability in high-humidity experiment (RH90±5%); type: physicochemical
# Description: Demethyleneberberine hydrochloride crystals A, B, C and D are taken in an appropriate amount and placed in plates numbered as A2, B2, C2 and D2 respectively, and then the plates are placed in a high-humidity environment at RH90±5% respectively for stability test.
# [2] = Stability in strong light irradiation experiment (4,500 lx±500 lx); type: physicochemical
# Description: Demethyleneberberine hydrochloride crystals A, B, C and D are taken in an appropriate amount and placed in plates numbered as A3, B3, C3 and D3 respectively, and then the plates are placed in a strong light irradiation environment at 4,500 lx±500 lx respectively for stability test.
# [3] = Solubility in ethanol system at different temperatures, HPLC; type: physicochemical; settings: FIG. 15, hydrochloride
# Protocol: Demethyleneberberine hydrochloride crystals A, B, C and D are taken in an appropriate amount and the solubility of demethyleneberberine hydrochloride crystals A, B, C and D at different temperatures in an ethanol system is studied respectively. 20 μl of sample is taken at each temperature node and detected by HPLC.
# [4] = Solubility in water system at different temperatures, HPLC; type: physicochemical; settings: hydrochloride
# Protocol: Demethyleneberberine hydrochloride crystals A, B, C and D are taken in an appropriate amount and the solubility of demethyleneberberine hydrochloride crystals A, B, C and D at different temperatures in a water system is studied respectively. 20 μl of sample is taken at each temperature node and detected by HPLC.
# [5] = Determination of blood concentration in rats after ig administration; type: in vivo; settings: male SD rats, ig 200 mg/kg, plasma, hydrochloride
# Protocol: Male SD rats are adaptively bred for 3 days, and rats having (220±20) g body weight are selected and divided into 5 groups, namely, blank group, demethyleneberberine hydrochloride crystal form A group, demethyleneberberine hydrochloride crystal form B group, demethyleneberberine hydrochloride crystal form C group and demethyleneberberine hydrochloride crystal form D group. Food supply is stopped for 12 h for gastric emptying before the experiment. For the rats in the experimental groups, ig (intragastric) administration dosage is 200 mg/kg. 0.2 ml of blood is taken from the orbits of the rats at 5 min., 15 min., 30 min., 1 h, 2 h, 6 h and 12 h respectively after ig administration, the whole blood is centrifuged, and 100 μl of plasma is taken and frozen at −20° C. for use later. 100 μl of plasma sample is taken, 200 μl of methanol is added into the plasma sample, the mixture is vortexed for 5 min., and then centrifuged at 10,000 r/min. for 15 min. in a centrifuge; the supernatant is taken and tested by HPLC. […] Through calculation on the basis of the experimental results, it is determined: DAUC=3.675 μg×ml^−1×h>AAUC=1.247 μg×ml^−1×h>BAUC=1.150 μg×ml^−1×h>CAUC=1.077 μg×ml^−1×h.
# [6] = Stability in high-temperature experiment (60±2° C.); type: physicochemical
# Protocol: Demethyleneberberine hydrochloride crystals A, B, C and D are taken in an appropriate amount and placed in plates numbered as A1, B1, C1 and D1 respectively, and then the plates are placed in a high-temperature environment at 60±2° C. respectively for stability test.
# [7] = Solubility in methanol system at different temperatures, HPLC; type: physicochemical; settings: FIG. 14, hydrochloride
# Protocol: Demethyleneberberine hydrochloride crystals A, B, C and D are taken in an appropriate amount and the solubility of demethyleneberberine hydrochloride crystals A, B, C and D at different temperatures in a methanol system is studied respectively. 20 μl of sample is taken at each temperature node and detected by HPLC.
# [8] = day 0, listed as D2, hydrochloride
# [9] = day 5, listed as D2, hydrochloride
# [10] = day 10, listed as D2, hydrochloride
# [11] = day 0, listed as D3, hydrochloride
# [12] = day 5, listed as D3, hydrochloride
# [13] = day 10, listed as D3, hydrochloride
# [14] = 60±2° C., day 0, listed as D1, hydrochloride
# [15] = 60±2° C., day 5, listed as D1, hydrochloride
# [16] = 60±2° C., day 10, listed as D1, hydrochloride
compound,measurement,setting,value
"COc1ccc2cc3[n+](cc2c1OC)CCc1cc(O)c(O)cc1-3 [crystal form D, demethyleneberberine hydrochloride]",Stability in the high-humidity environment,[1],relatively stable
same,X-Ray Powder Diffraction,[1]; day 0,Unchanged
same,Content (%),[1]; [8],99.48%
same,Content of Relevant Substance (%),[1]; [8],0.52%
same,X-Ray Powder Diffraction,[1]; day 5,Unchanged
same,Content (%),[1]; [9],99.41%
same,Content of Relevant Substance (%),[1]; [9],0.59%
same,X-Ray Powder Diffraction,[1]; day 10,Unchanged
same,Content (%),[1]; [10],99.32%
same,Content of Relevant Substance (%),[1]; [10],0.68%
same,X-Ray Powder Diffraction,[2]; day 0,Unchanged
same,Content (%),[2]; [11],99.78%
same,Content of Relevant Substance (%),[2]; [11],0.22%
same,X-Ray Powder Diffraction,[2]; day 5,Unchanged
same,Content (%),[2]; [12],99.58%
same,Content of Relevant Substance (%),[2]; [12],0.42%
same,Content (%),[2]; [13],99.64%
same,Content of Relevant Substance (%),[2]; [13],0.36%
same,X-Ray Powder Diffraction,[2]; [13],Changed
same,Stability in the strong light irradiation environment,[2]; hydrochloride,"unstable in the long-term strong light irradiation environment, and undergoes crystal transformation"
same,Solubility ranking among the four crystal forms,[3],solubility of crystal form A of demethyleneberberine hydrochloride>solubility of crystal form D
same,Solubility comparison of the four crystal forms (summary),"[4]; summary over water, methanol and ethanol systems",lowest; also recorded: solubility of crystal form A of demethyleneberberine hydrochloride>solubility of crystal form D
same,Solubility ranking among the four crystal forms,"[4]; water system, different temperatures, FIG. 13",solubility of crystal form A of demethyleneberberine hydrochloride>solubility of crystal form D
same,AUC,[5]; calculated from the experimental results,3675 ng·h/mL
same,Cmax,[5],1234 ng/mL
same,tmax,[5],2 h
same,X-Ray Powder Diffraction,"[6]; 60±2° C., day 0",Unchanged
same,Content (%),[6]; [14],99.78%
same,Content of Relevant Substance (%),[6]; [14],0.22%
same,X-Ray Powder Diffraction,"[6]; 60±2° C., day 5",Unchanged
same,Content (%),[6]; [15],99.83%
same,Content of Relevant Substance (%),[6]; [15],0.17%
same,Content (%),[6]; [16],99.71%
same,Content of Relevant Substance (%),[6]; [16],0.29%
same,X-Ray Powder Diffraction,[6]; [16],Changed
same,Stability in the high-temperature environment,"[6]; 60±2° C., hydrochloride","unstable in the long-term high-temperature environment, and undergoes crystal transformation"
same,Stability under stability test conditions (summary),"[6]; summary over high temperature, high humidity and strong light irradiation, hydrochloride",tends to have crystal transformation under conditions such as high temperature and strong light irradiation
same,Solubility ranking among the four crystal forms,[7],solubility of crystal form A of demethyleneberberine hydrochloride>solubility of crystal form D

# Source: patent US11242340B2, “Crystal forms of demethyleneberberine hydrochloride and preparation method therefor” (priority 2018, dated 2022)
